In ChEMBL document CHEMBL1143363, “Discovery of trisubstituted cyclohexanes as potent CC chemokine receptor 2 (CCR2) antagonists” (Bioorg Med Chem Lett, 2009):
pIC50: −log10 of the molar value.

What was measured:
[1] = biological target: T1, C-C chemokine receptor type 2 (Homo sapiens, UniProt P41597); test: Displacement of [125I]MCP1 from CCR2 in human PBMCs
Target sequence in this assay (P41597 whole entry): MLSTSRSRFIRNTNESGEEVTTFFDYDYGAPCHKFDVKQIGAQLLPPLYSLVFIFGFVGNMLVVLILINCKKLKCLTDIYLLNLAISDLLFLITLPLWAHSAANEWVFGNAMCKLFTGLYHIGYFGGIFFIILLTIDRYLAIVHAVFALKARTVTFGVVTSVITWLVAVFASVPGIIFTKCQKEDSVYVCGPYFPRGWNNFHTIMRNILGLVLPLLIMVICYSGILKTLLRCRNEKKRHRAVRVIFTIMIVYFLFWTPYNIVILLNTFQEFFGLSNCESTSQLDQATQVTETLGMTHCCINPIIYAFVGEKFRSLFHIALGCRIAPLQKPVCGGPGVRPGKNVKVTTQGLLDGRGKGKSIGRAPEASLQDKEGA

[2] = biological target: T1, C-C chemokine receptor type 2; test: Antagonist activity at CCR2 in human monocytes assessed as inhibition of MCP1-induced calcium influx by FLIPR; assay type: functional, cell-based
Target sequence in this assay (P41597 whole entry): as above

[3] = biological target: T1, C-C chemokine receptor type 2; test: Displacement of [125I]MCP1 from CCR2 in human PBMCs at 1 uM
Target sequence in this assay (P41597 whole entry, looked up): as the sequence (P41597 whole entry) above

[4] = Antagonist activity at CCR2 in human PBMCs assessed as inhibition of MCP1-induced chemotaxis

pIC50 [1] | pIC50 [2] | Activity [3] [%] | pIC50 [4] | SMILES
8.32 | 8.22 | – | – | CSc1ccc(C(=O)NC2CC(N)CCC2NC(=O)CNC(=O)c2cc(C(F)(F)F)ccc2N)cc1 (racemic)
6.78 | – | 28.1 | – | CSc1ccc(C(=O)NC2CCC(N)CC2NC(=O)CNC(=O)c2cc(C(F)(F)F)ccc2N)cc1 (racemic)
6.64 | – | – | – | CSc1ccc(C(=O)NC2CC(N)CCC2NC(=O)CNC(=O)c2cccc(C(F)(F)F)c2)cc1 (racemic)
– | – | – | 6.96 | CSc1ccc(C(=O)NC2CCNCC2NC(=O)CNC(=O)c2cc(C(F)(F)F)ccc2N)cc1 (racemic)
7.78 | 7.72 | – | – | CC(C)c1ccc(CNC2CC(N(C)C)CCC2NC(=O)CNC(=O)c2cccc(C(F)(F)F)c2)cc1 (racemic)
8.62 | 8.22 | – | – | CSc1ccc(CNC2CC(N(C)C)CCC2NC(=O)CNC(=O)c2cccc(C(F)(F)F)c2)cc1 (racemic)
7.90 | 8.10 | – | – | COc1ccc(CNC2CC(N(C)C)CCC2NC(=O)CNC(=O)c2cccc(C(F)(F)F)c2)cc1 (racemic)
7.49 | 7.57 | – | – | CN(C)C1CCC(NC(=O)CNC(=O)c2cccc(C(F)(F)F)c2)C(NCc2cccc(C(F)(F)F)c2)C1 (racemic)
5.79 | – | 0 | – | CSc1ccc(C(=O)NC2CCC(NC(=O)OCc3ccccc3)CC2NC(=O)CNC(=O)c2cccc(C(F)(F)F)c2)cc1 (racemic)
8.51 | 8.10 | – | – | CN(C)C1CCC(NC(=O)CNC(=O)c2cccc(C(F)(F)F)c2)C(NCc2ccc3[nH]ccc3c2)C1 (racemic)
7.80 | 8.15 | – | – | CN(C)C1CCC(NC(=O)CNC(=O)c2cccc(C(F)(F)F)c2)C(NCc2ccc(Cl)cc2)C1 (racemic)
7.21 | – | – | – | CN(C)C1CCC(NC(=O)CNC(=O)c2cccc(C(F)(F)F)c2)C(NCc2ccc(Cl)c(Cl)c2)C1 (racemic)
8.42 | 8.70 | – | – | CSc1ccc(C(=O)NC2CCC(NC(C)C)CC2NC(=O)CNC(=O)c2cc(C(F)(F)F)ccc2N)cc1 (racemic)
– | – | 3.1 | – | CSc1ccc(C(=O)NC2CCC(NC(=O)OCc3ccccc3)CC2NC(=O)CNC(=O)c2cc(C(F)(F)F)ccc2N)cc1 (racemic)
– | – | 13 | – | CSc1ccc(C(=O)NC2CCC(N)CC2NC(=O)CNC(=O)c2cccc(C(F)(F)F)c2)cc1 (racemic)
6.95 | – | – | – | CNC(=O)NC1CCC(NC(=O)c2ccc(SC)cc2)C(NC(=O)CNC(=O)c2cc(C(F)(F)F)ccc2N)C1 (racemic)
6.87 | – | – | – | CSc1ccc(C(=O)NC2CCC(NC(C)C)CC2NC(=O)CNC(=O)c2cccc(C(F)(F)F)c2)cc1 (racemic)
8.00 | 8.26 | – | – | Cc1ccc(CNC2CC(N(C)C)CCC2NC(=O)CNC(=O)c2cccc(C(F)(F)F)c2)cc1 (racemic)
– | – | 14 | – | CSc1ccc(C(=O)NC2CC(NC(=O)OCc3ccccc3)CCC2NC(=O)CNC(=O)c2cccc(C(F)(F)F)c2)cc1 (racemic; form 1)
6.81 | – | – | – | CSc1ccc(C(=O)NC2CCCCC2NC(=O)CNC(=O)c2cc(C(F)(F)F)ccc2N)cc1 (racemic)
– | – | 31.4 | – | CSc1ccc(C(=O)NC2CC(NC(C)C)CCC2NC(=O)CNC(=O)c2cccc(C(F)(F)F)c2)cc1 (racemic)
8.62 | 8.70 | – | – | CSc1ccc(C(=O)NC2CC(NC(=O)OCc3ccccc3)CCC2NC(=O)CNC(=O)c2cccc(C(F)(F)F)c2)cc1 (racemic; form 2)
8.11 | – | – | – | CC(=O)Nc1ccc(CNC2CC(N(C)C)CCC2NC(=O)CNC(=O)c2cccc(C(F)(F)F)c2)cc1 (racemic)
6.22 | – | – | – | CSc1ccc(C(=O)NC2CCC(NC(=O)OCc3ccccc3)CC2NC(=O)CNC(=O)c2cc(C(F)(F)F)ccc2NC(=O)OC(C)(C)C)cc1 (racemic)
